Experimental data: patent US9790178B2, “Pyrrolidinyl urea, thiourea, guanidine and cyanoguanidine compounds as TrkA kinase inhibitors” (Array BioPharma Inc., priority 2012, dated 2017)

Key:
Assay type in all cases: biochemical
[1] = test system: off-target kinases (panel of about 230 other kinases); test: KinaseProfiler full kinase panel, overall selectivity; settings: 10 μM concentration
Procedure: A representative compound of the invention (Example 20) was tested for off-target kinase activity at a concentration of 10 μM by Millipore, Inc. in their KinaseProfiler™ service against all the kinases available in their full kinase panel. The compound was run in duplicate at a concentration of ATP near the Km for each individual kinase according to Millipore's specifications. The results are shown in Table B. Data are reported as percent of control (POC) and are the average of the two replicates.
Such a drug profile would represent a safer approach to treating pain, inflammation, cancer and certain skin diseases than has been previously reported.

Txk = biological target: T1, Txk (Homo sapiens, UniProt P42681); test: KinaseProfiler off-target kinase profiling; settings: 10 μM, ATP near Km
T1 construct: purchased Millipore, Inc. (KinaseProfiler service)
Procedure, shortened: (§1)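 Reported as mean POC (two replicates). Conditions: compound 10 μM, ATP near individual kinase Km.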

ERK1 = biological target: T2, ERK1 (Homo sapiens, UniProt P27361); test: KinaseProfiler off-target kinase profiling; settings: 10 μM, ATP near Km
T2 construct: purchased Millipore, Inc. (KinaseProfiler service)
Procedure, shortened: as §1

Flt1 = biological target: T3, Flt1 (Homo sapiens, UniProt P17948); test: KinaseProfiler off-target kinase profiling; settings: 10 μM, ATP near Km
T3 construct: purchased Millipore, Inc. (KinaseProfiler service)
Procedure, shortened: as §1

PKCeta = biological target: T4, PKCeta (Homo sapiens, UniProt P24723); test: KinaseProfiler off-target kinase profiling; settings: 10 μM, ATP near Km
T4 construct: purchased Millipore, Inc. (KinaseProfiler service)
Procedure, shortened: as §1

EphA4 = biological target: T5, EphA4 (Homo sapiens, UniProt P54764); test: KinaseProfiler off-target kinase profiling; settings: 10 μM, ATP near Km
T5 construct: purchased Millipore, Inc. (KinaseProfiler service)
Procedure, shortened: as §1

FGFR2 = biological target: T6, FGFR2 (Homo sapiens, UniProt P21802); test: KinaseProfiler off-target kinase profiling; settings: 10 μM, ATP near Km
T6 construct: purchased Millipore, Inc. (KinaseProfiler service)
Procedure, shortened: as §1

ROCK-I = biological target: T7, ROCK-I (Homo sapiens, UniProt Q13464); test: KinaseProfiler off-target kinase profiling; settings: 10 μM, ATP near Km
T7 construct: purchased Millipore (KinaseProfiler service)
Procedure, shortened: as §1

EphA3 = biological target: T8, EphA3 (Homo sapiens, UniProt P29320); test: KinaseProfiler off-target kinase profiling; settings: 10 μM, ATP near Km
T8 construct: purchased Millipore, Inc. (KinaseProfiler service)
Procedure, shortened: as §1

MST2 = biological target: T9, MST2 (Homo sapiens, UniProt Q13188); test: KinaseProfiler off-target kinase profiling; settings: 10 μM, ATP near Km
T9 construct: purchased Millipore, Inc. (KinaseProfiler service)
Procedure, shortened: as §1

MST3 = biological target: T10, MST3 (Homo sapiens, UniProt Q9Y6E0); test: KinaseProfiler off-target kinase profiling; settings: 10 μM, ATP near Km
T10 construct: purchased Millipore, Inc. (KinaseProfiler service)
T10 sequence (Q9Y6E0 whole entry): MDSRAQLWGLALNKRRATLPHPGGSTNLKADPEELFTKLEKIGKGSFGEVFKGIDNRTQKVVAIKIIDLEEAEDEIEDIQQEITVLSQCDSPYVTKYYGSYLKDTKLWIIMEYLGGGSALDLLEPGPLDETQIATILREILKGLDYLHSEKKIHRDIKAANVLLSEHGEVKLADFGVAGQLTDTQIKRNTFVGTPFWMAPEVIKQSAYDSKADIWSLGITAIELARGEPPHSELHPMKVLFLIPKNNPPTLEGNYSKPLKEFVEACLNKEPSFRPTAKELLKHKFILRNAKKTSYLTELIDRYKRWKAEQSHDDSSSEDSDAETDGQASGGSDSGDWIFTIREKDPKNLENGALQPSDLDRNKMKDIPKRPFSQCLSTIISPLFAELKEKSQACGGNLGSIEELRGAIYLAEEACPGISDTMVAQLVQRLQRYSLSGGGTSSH
Procedure, shortened: as §1

IKKbeta = biological target: T11, IKKbeta (Homo sapiens, UniProt O14920); test: KinaseProfiler off-target kinase profiling; settings: 10 μM, ATP near Km
T11 construct: purchased Millipore, Inc. (KinaseProfiler service)
Procedure, shortened: as §1

SRPK2 = biological target: T12, SRPK2 (Homo sapiens, UniProt P78362); test: KinaseProfiler off-target kinase profiling; settings: 10 μM, ATP near Km
T12 construct: purchased Millipore, Inc. (KinaseProfiler service)
Procedure, shortened: as §1

DRAK1 = biological target: T13, DRAK1 (Homo sapiens, UniProt Q9UEE5); test: KinaseProfiler off-target kinase profiling; settings: 10 μM, ATP near Km
T13 construct: purchased Millipore, Inc. (KinaseProfiler service)
T13 sequence (Q9UEE5 whole entry): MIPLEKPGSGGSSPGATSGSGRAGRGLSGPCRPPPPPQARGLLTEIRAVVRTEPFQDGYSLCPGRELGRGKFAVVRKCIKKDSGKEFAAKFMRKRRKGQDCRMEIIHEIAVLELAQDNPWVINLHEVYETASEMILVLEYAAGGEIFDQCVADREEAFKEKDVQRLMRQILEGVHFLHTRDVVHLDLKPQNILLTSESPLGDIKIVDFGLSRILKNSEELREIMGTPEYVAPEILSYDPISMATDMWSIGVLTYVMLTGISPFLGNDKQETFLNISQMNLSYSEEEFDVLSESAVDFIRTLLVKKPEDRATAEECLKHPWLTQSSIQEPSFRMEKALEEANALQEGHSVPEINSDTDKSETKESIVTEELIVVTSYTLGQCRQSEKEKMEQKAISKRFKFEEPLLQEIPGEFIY
Procedure, shortened: as §1

PKCzeta = biological target: T14, PKCzeta (Homo sapiens, UniProt Q05513); test: KinaseProfiler off-target kinase profiling; settings: 10 μM, ATP near Km
T14 construct: purchased Millipore (KinaseProfiler service)
Procedure, shortened: as §1

CDK2/cyclinA = biological target: T15, CDK2/cyclinA (Homo sapiens, UniProt P24941); test: KinaseProfiler off-target kinase profiling; settings: 10 μM, ATP near Km
T15 construct: purchased Millipore, Inc. (KinaseProfiler service)
Procedure, shortened: as §1

NEK7 = biological target: T16, NEK7 (Homo sapiens, UniProt Q8TDX7); test: KinaseProfiler off-target kinase profiling; settings: 10 μM, ATP near Km
T16 construct: purchased Millipore, Inc. (KinaseProfiler service)
Procedure, shortened: as §1

Flt4 = biological target: T17, Flt4 (Homo sapiens, UniProt P35916); test: KinaseProfiler off-target kinase profiling; settings: 10 μM, ATP near Km
T17 construct: purchased Millipore, Inc. (KinaseProfiler service)
Procedure, shortened: as §1

CDK9/cyclinT1 = biological target: T18, CDK9/cyclinT1 (Homo sapiens, UniProt P50750); test: KinaseProfiler off-target kinase profiling; settings: 10 μM, ATP near Km
T18 construct: purchased Millipore, Inc. (KinaseProfiler service)
Procedure, shortened: as §1

SGK1 = biological target: T19, SGK1 (Homo sapiens, UniProt O00141, S422D); test: KinaseProfiler off-target kinase profiling; settings: 10 μM, ATP near Km
T19 construct: purchased Millipore, Inc. (KinaseProfiler service)
Procedure, shortened: as §1

Ret = biological target: T20, Ret (Homo sapiens, UniProt P07949); test: KinaseProfiler off-target kinase profiling; settings: 10 μM, ATP near Km
T20 construct: purchased Millipore (KinaseProfiler service)
Procedure, shortened: as §1

GSK3alpha = biological target: T21, GSK3alpha (Homo sapiens, UniProt P49840); test: KinaseProfiler off-target kinase profiling; settings: 10 μM, ATP near Km
T21 construct: purchased Millipore, Inc. (KinaseProfiler service)
T21 sequence (P49840 whole entry): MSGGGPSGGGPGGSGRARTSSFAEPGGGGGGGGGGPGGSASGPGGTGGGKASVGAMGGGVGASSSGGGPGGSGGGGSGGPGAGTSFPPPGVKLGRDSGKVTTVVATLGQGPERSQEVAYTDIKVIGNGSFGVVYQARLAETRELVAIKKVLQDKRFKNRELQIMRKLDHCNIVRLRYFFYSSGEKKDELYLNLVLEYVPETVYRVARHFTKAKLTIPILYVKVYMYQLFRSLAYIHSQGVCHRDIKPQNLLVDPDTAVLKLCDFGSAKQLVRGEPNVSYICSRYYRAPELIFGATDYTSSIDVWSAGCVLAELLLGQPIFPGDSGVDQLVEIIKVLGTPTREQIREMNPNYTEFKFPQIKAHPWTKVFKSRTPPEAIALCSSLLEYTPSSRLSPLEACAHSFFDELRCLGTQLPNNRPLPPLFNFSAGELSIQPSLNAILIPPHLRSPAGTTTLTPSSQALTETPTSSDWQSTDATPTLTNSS
Procedure, shortened: as §1

Rsk2 = biological target: T22, Rsk2 (Homo sapiens, UniProt P51812); test: KinaseProfiler off-target kinase profiling; settings: 10 μM, ATP near Km
T22 construct: purchased Millipore (KinaseProfiler service)
Procedure, shortened: as §1

CDK1/cyclinB = biological target: T23, CDK1/cyclinB (Homo sapiens, UniProt P06493); test: KinaseProfiler off-target kinase profiling; settings: 10 μM, ATP near Km
T23 construct: purchased Millipore, Inc. (KinaseProfiler service)
T23 sequence (P06493 whole entry): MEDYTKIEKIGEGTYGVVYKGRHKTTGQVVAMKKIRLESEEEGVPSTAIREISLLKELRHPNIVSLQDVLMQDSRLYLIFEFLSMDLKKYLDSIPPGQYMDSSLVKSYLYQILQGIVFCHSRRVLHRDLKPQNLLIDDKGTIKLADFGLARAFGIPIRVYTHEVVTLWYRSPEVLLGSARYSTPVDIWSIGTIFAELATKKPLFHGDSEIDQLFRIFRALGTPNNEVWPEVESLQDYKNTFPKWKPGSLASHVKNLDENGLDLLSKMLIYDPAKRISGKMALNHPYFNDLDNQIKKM
T23 sequence (P14635 whole entry partner): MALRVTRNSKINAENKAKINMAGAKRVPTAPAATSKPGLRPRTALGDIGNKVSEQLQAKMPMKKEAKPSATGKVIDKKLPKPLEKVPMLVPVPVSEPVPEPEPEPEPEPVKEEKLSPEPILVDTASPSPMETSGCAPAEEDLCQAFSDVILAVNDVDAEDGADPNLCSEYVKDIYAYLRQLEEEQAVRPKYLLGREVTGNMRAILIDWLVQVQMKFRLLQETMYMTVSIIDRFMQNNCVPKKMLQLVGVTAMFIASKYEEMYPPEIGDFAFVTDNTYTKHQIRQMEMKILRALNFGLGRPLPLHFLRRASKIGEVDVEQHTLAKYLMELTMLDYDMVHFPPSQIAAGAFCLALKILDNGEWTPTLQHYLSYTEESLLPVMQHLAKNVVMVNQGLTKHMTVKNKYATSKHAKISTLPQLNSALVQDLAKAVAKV
Procedure, shortened: as §1

IGF-1R = biological target: T24, IGF-1R (Homo sapiens, UniProt P08069); test: KinaseProfiler off-target kinase profiling; settings: 10 μM, ATP near Km
T24 construct: purchased Millipore, Inc. (KinaseProfiler service)
Procedure, shortened: as §1

CDK3/cyclinE = biological target: T25, CDK3/cyclinE (Homo sapiens, UniProt Q00526); test: KinaseProfiler off-target kinase profiling; settings: 10 μM, ATP near Km
T25 construct: purchased Millipore, Inc. (KinaseProfiler service)
T25 sequence (Q00526 whole entry): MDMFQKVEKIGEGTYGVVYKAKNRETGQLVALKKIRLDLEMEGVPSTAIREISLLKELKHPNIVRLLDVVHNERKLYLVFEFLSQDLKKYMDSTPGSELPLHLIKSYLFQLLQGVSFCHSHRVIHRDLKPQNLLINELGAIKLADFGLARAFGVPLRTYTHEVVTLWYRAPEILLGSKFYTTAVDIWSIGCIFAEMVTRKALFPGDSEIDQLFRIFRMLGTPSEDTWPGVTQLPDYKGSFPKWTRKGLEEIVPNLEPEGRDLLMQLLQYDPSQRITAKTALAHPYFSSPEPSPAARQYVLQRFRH
T25 sequence (P24864 whole entry partner): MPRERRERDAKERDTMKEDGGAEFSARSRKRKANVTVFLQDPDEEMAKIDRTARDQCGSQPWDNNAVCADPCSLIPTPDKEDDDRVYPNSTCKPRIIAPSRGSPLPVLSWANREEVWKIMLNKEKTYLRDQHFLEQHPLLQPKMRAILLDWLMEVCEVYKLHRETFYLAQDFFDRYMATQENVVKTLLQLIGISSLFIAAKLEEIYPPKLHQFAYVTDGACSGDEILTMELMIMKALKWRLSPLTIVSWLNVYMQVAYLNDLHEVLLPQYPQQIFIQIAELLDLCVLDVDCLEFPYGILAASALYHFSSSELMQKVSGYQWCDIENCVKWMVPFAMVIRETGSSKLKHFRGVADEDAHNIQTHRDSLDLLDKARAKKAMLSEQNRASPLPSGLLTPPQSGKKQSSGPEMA
Procedure, shortened: as §1

MKK7beta = biological target: T26, MKK7beta (Homo sapiens, UniProt O14733); test: KinaseProfiler off-target kinase profiling; settings: 10 μM, ATP near Km, POC verified as a false positive (footnote)
T26 construct: purchased Millipore, Inc. (KinaseProfiler service)
Procedure, shortened: as §1

EGFR = biological target: T27, EGFR (Homo sapiens, UniProt P00533); test: KinaseProfiler off-target kinase profiling; settings: 10 μM, ATP near Km
T27 construct: purchased Millipore, Inc. (KinaseProfiler service)
Procedure, shortened: as §1

BrSK1 = biological target: T28, BrSK1 (Homo sapiens, UniProt Q8TDC3); test: KinaseProfiler off-target kinase profiling; settings: 10 μM, ATP near Km
T28 construct: purchased Millipore, Inc. (KinaseProfiler service)
Procedure, shortened: as §1

PKCdelta = biological target: T29, PKCdelta (Homo sapiens, UniProt Q05655); test: KinaseProfiler off-target kinase profiling; settings: 10 μM, ATP near Km
T29 construct: purchased Millipore, Inc. (KinaseProfiler service)
Procedure, shortened: as §1

IR Activated = biological target: T30, IR Activated (Homo sapiens, UniProt P06213); test: KinaseProfiler off-target kinase profiling; settings: 10 μM, ATP near Km
T30 construct: purchased Millipore, Inc. (KinaseProfiler service)
Procedure, shortened: as §1

CAMK2g = biological target: T31, CAMK2g (Homo sapiens, UniProt Q13555); test: KinaseProfiler off-target kinase profiling; settings: 10 μM, ATP near Km
T31 construct: purchased Millipore, Inc. (KinaseProfiler service)
Procedure, shortened: as §1

FGFR4 = biological target: T32, FGFR4 (Homo sapiens, UniProt P22455); test: KinaseProfiler off-target kinase profiling; settings: 10 μM, ATP near Km
T32 construct: purchased Millipore, Inc. (KinaseProfiler service)
T32 sequence (P22455 22-802): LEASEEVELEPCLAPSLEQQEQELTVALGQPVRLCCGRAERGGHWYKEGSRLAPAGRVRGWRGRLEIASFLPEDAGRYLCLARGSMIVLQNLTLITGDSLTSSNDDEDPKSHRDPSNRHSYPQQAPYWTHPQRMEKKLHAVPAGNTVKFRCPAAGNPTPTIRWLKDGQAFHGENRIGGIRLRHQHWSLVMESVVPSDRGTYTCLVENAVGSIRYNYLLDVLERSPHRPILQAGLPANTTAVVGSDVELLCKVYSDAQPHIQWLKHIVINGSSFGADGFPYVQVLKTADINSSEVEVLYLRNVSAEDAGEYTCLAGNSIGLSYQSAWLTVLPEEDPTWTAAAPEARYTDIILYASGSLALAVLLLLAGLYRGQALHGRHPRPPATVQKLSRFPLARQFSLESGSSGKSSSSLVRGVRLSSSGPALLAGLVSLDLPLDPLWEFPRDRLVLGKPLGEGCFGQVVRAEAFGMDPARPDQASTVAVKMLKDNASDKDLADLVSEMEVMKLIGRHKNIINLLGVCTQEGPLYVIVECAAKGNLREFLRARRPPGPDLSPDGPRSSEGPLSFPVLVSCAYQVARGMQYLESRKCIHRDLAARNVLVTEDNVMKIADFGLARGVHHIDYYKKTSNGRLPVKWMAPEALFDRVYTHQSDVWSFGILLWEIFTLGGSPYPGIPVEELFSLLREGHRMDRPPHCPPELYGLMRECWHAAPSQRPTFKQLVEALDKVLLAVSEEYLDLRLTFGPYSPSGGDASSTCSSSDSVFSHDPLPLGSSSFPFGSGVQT
Procedure, shortened: as §1

TAO2 = biological target: T33, TAO2 (Homo sapiens, UniProt Q9UL54); test: KinaseProfiler off-target kinase profiling; settings: 10 μM, ATP near Km
T33 construct: purchased Millipore, Inc. (KinaseProfiler service)
T33 sequence (Q9UL54 whole entry): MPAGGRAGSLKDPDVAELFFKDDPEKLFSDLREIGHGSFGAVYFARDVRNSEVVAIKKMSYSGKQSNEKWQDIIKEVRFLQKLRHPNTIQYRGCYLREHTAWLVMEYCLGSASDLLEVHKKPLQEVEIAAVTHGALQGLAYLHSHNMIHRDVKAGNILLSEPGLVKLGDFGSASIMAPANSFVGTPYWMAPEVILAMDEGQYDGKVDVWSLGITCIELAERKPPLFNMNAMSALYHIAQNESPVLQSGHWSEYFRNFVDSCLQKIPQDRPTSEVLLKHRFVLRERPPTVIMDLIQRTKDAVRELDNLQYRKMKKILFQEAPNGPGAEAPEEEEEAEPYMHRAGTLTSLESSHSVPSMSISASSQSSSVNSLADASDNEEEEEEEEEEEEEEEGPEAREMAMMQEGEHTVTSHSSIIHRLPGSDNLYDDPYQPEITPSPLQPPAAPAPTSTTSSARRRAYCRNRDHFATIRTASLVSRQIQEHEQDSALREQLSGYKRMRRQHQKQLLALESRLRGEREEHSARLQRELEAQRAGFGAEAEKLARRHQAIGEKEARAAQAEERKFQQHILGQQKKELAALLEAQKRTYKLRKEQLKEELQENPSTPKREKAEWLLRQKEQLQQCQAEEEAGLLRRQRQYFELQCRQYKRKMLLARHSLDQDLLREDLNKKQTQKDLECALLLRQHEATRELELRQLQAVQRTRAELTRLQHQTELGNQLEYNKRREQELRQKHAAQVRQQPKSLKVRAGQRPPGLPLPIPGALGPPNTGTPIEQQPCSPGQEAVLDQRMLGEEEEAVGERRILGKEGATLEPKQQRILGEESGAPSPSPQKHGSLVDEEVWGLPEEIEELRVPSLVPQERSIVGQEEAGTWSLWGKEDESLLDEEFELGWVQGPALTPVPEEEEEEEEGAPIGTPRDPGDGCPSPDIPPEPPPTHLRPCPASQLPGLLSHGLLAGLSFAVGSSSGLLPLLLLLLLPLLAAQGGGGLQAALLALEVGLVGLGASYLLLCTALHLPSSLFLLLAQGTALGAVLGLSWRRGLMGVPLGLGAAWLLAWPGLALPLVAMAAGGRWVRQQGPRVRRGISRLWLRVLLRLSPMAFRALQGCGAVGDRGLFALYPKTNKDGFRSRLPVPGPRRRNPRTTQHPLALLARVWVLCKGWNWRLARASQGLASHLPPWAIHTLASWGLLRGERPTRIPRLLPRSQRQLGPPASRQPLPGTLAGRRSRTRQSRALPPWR
Procedure, shortened: as §1

Avg. POC (Txk): 130 POC
Avg. POC (ERK1): 115 POC
Avg. POC (Flt1): 100 POC
Avg. POC (PKCeta): 105.5 POC
Avg. POC (EphA4): 106 POC
Avg. POC (FGFR2): 106 POC
Avg. POC (ROCK-I): 95.5 POC
Avg. POC (EphA3): 98 POC
Avg. POC (MST2): 107.5 POC
Avg. POC (MST3): 104 POC
Avg. POC (IKKbeta): 107.5 POC
Avg. POC (SRPK2): 100 POC
Avg. POC (DRAK1): 107 POC
Avg. POC (PKCzeta): 104 POC
Avg. POC (CDK2/cyclinA): 112 POC
Avg. POC (NEK7): 105.5 POC
Avg. POC (Flt4): 110.5 POC
Avg. POC (CDK9/cyclinT1): 109.5 POC
Avg. POC (SGK1): 119 POC
Avg. POC (Ret): 97.5 POC
Avg. POC (GSK3alpha): 109.5 POC
Avg. POC (Rsk2): 110.5 POC
Avg. POC (CDK1/cyclinB): 99 POC
Avg. POC (IGF-1R): 73 POC
Avg. POC (CDK3/cyclinE): 111 POC
Avg. POC (MKK7beta): −2 POC
Avg. POC (EGFR): 107.5 POC
Avg. POC (BrSK1): 112.5 POC
Avg. POC (PKCdelta): 106.5 POC
Avg. POC (IR Activated): 108 POC
Avg. POC (CAMK2g): 113 POC
Avg. POC (FGFR4): 90 POC
Avg. POC (TAO2): 104.5 POC
Structure (SMILES): COCCN1C[C@@H](NC(=O)Nc2c(-c3ccccc3)nc3c(C)nccn23)[C@H](c2ccc(F)c(F)c2)C1 [Example 20, 1-((3S,4R)-4-(3,4-difluorophenyl)-1-(2-methoxyethyl)pyrrolidin-3-yl)-3-(8-methyl-2-phenylimidazo[1,2-a]pyrazin-3-yl)urea]
selectivity for TrkA (and TrkB) versus other kinases in the panel [1]: largely inactive against off-target kinases
